US5527782A, “5-halo-2,3'-O-cyclocytidines” (ACIC (Canada) Inc., priority 1990, dated 1996)
Where a name gives a salt, the structure may show the parent alone.

Tests used:
[1] = system: A549; experiment: In vivo antitumor activity, A549 engrafted s.c. in SCID mice; details: for Growth Delay: calculated from tumor volume curve; for Tumor Weight (% Inhibition): tumor weight at day 20
Procedure: (§1) In vivo studies were conducted comparing the effectiveness of 5-bromo-2,3'-O-cyclocytidine hydrochloride (5-Br-cycloC) with one or more of 2,3'-O-cyclocytidine hydrochloride (cycloC), 1 -β-D-arabinofuranosylcytosine (Ara-C), Adfiamycin (ADR) and Dacarbazine (DTIC).
(§2) More specifically, the antitumor activity of these compounds were evaluated in two human tumor cell lines engrafted in severe combined immunodeficient (SCID) mice. The particular cell lines used in this Example were A549 (described above in Example 5) and melanoma A375 cells obtained from The American Type Culture Collection (ATCC) (hereinafter referred to as A375).

[2] = system: A375 melanoma cells; experiment: In vivo antitumor activity, A375 melanoma engrafted s.c. in SCID mice; details: for Growth Delay: calculated from tumor volume curve; for Tumor Weight (% Inhibition): tumor weight at day 20
Procedure: as §1, §2

[3] = system: human alveolar tumour cell line A549; experiment: [methyl-^3 H]thymidine uptake / cytotoxicity in human alveolar tumour cell line A549; type: cell-based; details: for IC50: Homo sapiens, 96 h, A549, four days incubation, then [methyl-^3 H]thymidine four hours, read-out: IC50 (drug concentrations producing 50% cytotoxicity); for cytotoxic effect on A549 cells compared to 2,3'-O-cyclocytidine hydrochloride: at relatively low concentrations
From the text: In this Example, there is described an in vitro comparison between 2,3'-O-cyclocytidine hydrochloride, 5-bromo-2,3'-O-cyclocytidine hydrochloride, and 5-iodo-2,3'-O-cyclocytidine hydrochloride. The specific in vitro test involved assessing the toxicity of the compounds in a particular cell line by conducting [methyl-^3 H]thymidine uptake experiments.
The particular cell line used in the Example was human alveolar tumour cell line A549 (hereinafter referred to as A549) obtained from The American Type Culture Collection (ATCC) as CCL 185 (lung carcinoma, human).
Cultures were inoculated at 1×10^5 cells/60 mm dish, incubated for four days in the presence of various concentrations (see FIGURE) of 2,3'-O-cyclocytidine hydrochloride (.largecircle.), 5-bromo-2,3'-O-cyclocytidine hydrochloride and 5-iodo-2,3'-O-cyclocytidine hydrochloride. Thereafter, the cells were incubated with a medium supplemented with [methyl-^3 H]thymidine (82 Cl/mmol; 5 μCl/ml) for four hours and lysed, and the amount of radioactivity incorporated into genomic DNA was measured. The IC50 values (drug concentrations producing 50% cytotoxicity) for each compound illustrated in the FIGURE are reported in Table 10. As will be apparent from […]

[4] = MTD in non-tumor bearing SCID mice; details: mouse, in vivo, ip, i.p. daily×7
[5] = Experiment 1, 60 mg/kg i.p. daily × 7
[6] = Experiment 2, 60 mg/kg i.p. daily × 7
[7] = Experiment 2, 60 mg/kg i.p. daily ×
[8] = Experiment 3, 120 mg/kg i.p. every other day × 7
[9] = Experiment 4, 120 mg/kg i.p. every other day × 7
[10] = Experiment 1, 1000 mg/kg i.p. daily × 7
[11] = Experiment 1, 200 mg/kg i.p. daily × 7
[12] = Experiment 2, 250 mg/kg i.p. daily × 7
[13] = Experiment 2, 300 mg/kg i.p. × 1
[14] = Experiment 3, 250 mg/kg i.p. daily × 7
[15] = Experiment 3, 250 mg/kg i.p. every other day × 7
[16] = Experiment 4, 250 mg/kg i.p. every other day × 7
[17] = Experiment 1, 250 mg/kg i.p. daily × 7
[18] = Experiment 1, 250 mg/kg i.p. every other day × 7

COc1cccc2c1C(=O)c1c(O)c3c(c(O)c1C2=O)C[C@@](O)(C(=O)CO)C[C@@H]3O[C@H]1C[C@H](N)[C@H](O)[C@H](C)O1 [ADR, Adfiamycin]
survival rate ([1]; A549, Table 12): ≤ 33.3%
Survival Rate (%) ([1]; Experiment 1, 7 mg/kg i.p. × 1): 16.7%
Growth Delay ([1]; Experiment 1, 7 mg/kg i.p. × 1): 5 days
Tumor Weight (% Inhibition) ([1]; Experiment 1, 7 mg/kg i.p. × 1): 6%
Survival Rate (%) ([1]; Experiment 2, 5 mg/kg i.p. × 1): 16.7%
Growth Delay ([1]; Experiment 2, 5 mg/kg i.p. × 1): 6 days
Tumor Weight (% Inhibition) ([1]; Experiment 2, 5 mg/kg i.p. × 1): 24%
weight loss ([1]; in vivo): weight loss
Weight Loss (% Decrease) ([1]; in vivo, ip, 5 mg/kg): 32%
Weight Loss (% Decrease) ([1]; in vivo, ip, 7 mg/kg): 16%

Nc1ccn([C@@H]2O[C@H](CO)[C@@H](O)[C@@H]2O)c(=O)n1 [Ara-C, 1 -β-D-arabinofuranosylcytosine]
Survival Rate (%) [2, 5]: 100%
Growth Delay [2, 5]: 10 days
Tumor Weight (% Inhibition) [2, 5]: 45%
Survival Rate (%) [2, 6]: 100%
Growth Delay [2, 6]: 11 days
Tumor Weight (% Inhibition) [2, 6]: 39%
survival rate ([1]; A549, Table 12): ≤ 33.3%
Survival Rate (%) [1, 5]: 33.3%
Growth Delay [1, 5]: 7 days
Tumor Weight (% Inhibition) [1, 5]: 38%
Survival Rate (%) [1, 7]: 33.3%
Growth Delay [1, 7]: 11 days
Tumor Weight (% Inhibition) [1, 7]: 47%
weight loss ([1]; in vivo): weight loss

CN(C)/N=N/c1[nH]cnc1C(N)=O [DTIC, Dacarbazine, reference compound]
Growth Delay [2, 8]: 12 days
Tumor Weight (% Inhibition) [2, 8]: 53%
Growth Delay [2, 9]: 13 days
Tumor Weight (% Inhibition) [2, 9]: 59%

N=c1ccn2c(n1)O[C@@H]1[C@@H](O)[C@H]2O[C@@H]1CO [2,3'-O-Cyclocytidine hydrochloride, 2,3'-O-cyclocytidine hydrochloride, reference compound]
IC50 [3]: 50 µM
Growth Delay [2, 10]: 2 days
Tumor Weight (% Inhibition) [2, 10]: +6%
Survival Rate (%) ([2]; in vivo, ip, 1000 mg/kg): 100%
Weight Loss (% Decrease) ([2]; in vivo, ip, 1000 mg/kg): 0%

N=c1nc2n(cc1I)[C@@H]1O[C@H](CO)[C@H](O2)[C@H]1O [5-Iodo-2,3'-O-cyclocytidine hydrochloride]
IC50 [3]: 10 µM
cytotoxic effect on A549 cells compared to 2,3'-O-cyclocytidine hydrochloride [3]: significantly superior cytotoxic effect

N=c1nc2n(cc1Br)[C@@H]1O[C@H](CO)[C@H](O2)[C@H]1O [5-bromo-2,3'-O-cyclocytidine hydrochloride]
IC50 [3]: 40 µM
cytotoxic effect on A549 cells compared to 2,3'-O-cyclocytidine hydrochloride [3]: significantly superior cytotoxic effect
Growth Delay [2, 11]: 10 days
Tumor Weight (% Inhibition) [2, 11]: 26%
Growth Delay [2, 12]: 10 days
Tumor Weight (% Inhibition) [2, 12]: 43%
Growth Delay [2, 13]: 11 days
Tumor Weight (% Inhibition) [2, 13]: 45%
Growth Delay [2, 14]: 9 days
Tumor Weight (% Inhibition) [2, 14]: 38%
Growth Delay [2, 15]: 12 days
Tumor Weight (% Inhibition) [2, 15]: 43%
Growth Delay [2, 16]: 11 days
Tumor Weight (% Inhibition) [2, 16]: 48%
weight loss during therapy ([2]; in vivo): no weight loss (or in two instances an actual weight gain)
Survival Rate (%) ([2]; in vivo, ip, 200 mg/kg): 100%
Weight Loss (% Decrease) ([2]; in vivo, ip, 200 mg/kg): 0%
Survival Rate (%) ([2]; in vivo, ip, 300 mg/kg): 33.3%
Weight Loss (% Decrease) ([2]; in vivo, ip, 300 mg/kg): 0%
effectiveness in effecting tumor growth delay ([2]; treatment of A375, Table 11): as effective in effecting tumor growth delay as 1-β-D-arabinofuranosylcytosine and dacarbazine, and much more effective than 2,3'-O-cyclocytidine hydrochloride
decrease of tumor growth ([1]; 250 mg/kg daily×7, over a 20 day period): significantly decreased tumor growth
Growth Delay [1, 17]: 10 days
Tumor Weight (% Inhibition) [1, 17]: 43%
Growth Delay [1, 18]: 6 days
Tumor Weight (% Inhibition) [1, 18]: 12%
survival rate ([1]; in vivo): 100%
weight loss ([1]; in vivo): no weight loss (or an actual weight in one stance)
Survival Rate (%) ([1]; in vivo, ip, 250 mg/kg): 100%
MTD [4]: 250 mg/kg
